Measurements: US20220348590A1, “CYCLOOXYGENASE-2 INHIBITORS AND USES THEREOF” (The Board Institute, Inc., priority 2019, published 2022)
In brackets after ≈: the same amount, converted by molar mass. Like-named read-outs stand apart in the source and are kept apart here.

Assays:
[1] = Mouse Plasma Protein Stability (% Remaining); assay type: in vitro ADME; details: average
[2] = target: T1, human recombinant COX2 (hCOX2) (UniProt P35354); test: LCMS-based COX2 enzymatic inhibition assay (PGE2 quantification); assay type: biochemical; set-up: COX2 2 minutes pge2/pge2d4 area ratio Avg; other: 2 minutes; readout pge2/pge2d4 area ratio; average; COX2 2 minutes pge2/pge2d4 area ratio Avg; LLE; average LLE; COX2 2 minutes pge2 area (counts) Avg; readout pge2 area (counts); other: 2 min; "ovine COX2 (oCOX2), human recombinant COX2 (hCOX2)"; details: 2 minutes; for COX2 2 minutes pge2/pge2d4 area ratio Avg. LLE / COX2 2 minutes pge2 area (counts) Avg. LLE: average LLE; for IC50: average
T1 sequence (P35354 1-604): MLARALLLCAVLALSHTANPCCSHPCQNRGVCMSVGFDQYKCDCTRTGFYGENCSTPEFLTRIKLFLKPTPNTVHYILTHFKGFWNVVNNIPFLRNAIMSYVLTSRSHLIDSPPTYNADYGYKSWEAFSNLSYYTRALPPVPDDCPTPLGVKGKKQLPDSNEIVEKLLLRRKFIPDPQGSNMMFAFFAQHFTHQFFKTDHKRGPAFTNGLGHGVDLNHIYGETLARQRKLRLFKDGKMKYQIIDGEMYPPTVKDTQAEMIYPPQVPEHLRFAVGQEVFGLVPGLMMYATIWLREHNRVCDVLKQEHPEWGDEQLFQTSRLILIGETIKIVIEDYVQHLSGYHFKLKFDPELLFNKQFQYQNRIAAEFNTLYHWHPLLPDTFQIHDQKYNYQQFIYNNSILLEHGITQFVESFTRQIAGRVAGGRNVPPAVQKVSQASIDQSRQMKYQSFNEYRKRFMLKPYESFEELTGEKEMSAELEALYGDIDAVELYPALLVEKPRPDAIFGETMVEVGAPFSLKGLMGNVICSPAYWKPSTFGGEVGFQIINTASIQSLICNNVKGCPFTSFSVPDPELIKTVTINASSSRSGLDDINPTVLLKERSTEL
Outline: (§1)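 Ovine COX-1 (0.1 μg) or human recombinant COX2 (0.2 μg) in 100 mM Tris.HCl pH 8.0 with hematin and epinephrine, preincubated with inhibitor 10 min at 37 °C. Reaction with 5 μM arachidonic acid stopped after 2 min with HCl; PGE2 quantified by LC-MS-MS. IC50 from 12 concentrations in triplicate.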

[3] = target: T2, ovine COX-1 (oCOX-1) (Ovis aries, UniProt P05979); test: LCMS-based COX-1 enzymatic inhibition assay (PGE2 quantification); assay type: biochemical
T2 construct: purchased Cayman Chemicals (Ann Arbor, Mich.)
T2 sequence (P05979 25-600): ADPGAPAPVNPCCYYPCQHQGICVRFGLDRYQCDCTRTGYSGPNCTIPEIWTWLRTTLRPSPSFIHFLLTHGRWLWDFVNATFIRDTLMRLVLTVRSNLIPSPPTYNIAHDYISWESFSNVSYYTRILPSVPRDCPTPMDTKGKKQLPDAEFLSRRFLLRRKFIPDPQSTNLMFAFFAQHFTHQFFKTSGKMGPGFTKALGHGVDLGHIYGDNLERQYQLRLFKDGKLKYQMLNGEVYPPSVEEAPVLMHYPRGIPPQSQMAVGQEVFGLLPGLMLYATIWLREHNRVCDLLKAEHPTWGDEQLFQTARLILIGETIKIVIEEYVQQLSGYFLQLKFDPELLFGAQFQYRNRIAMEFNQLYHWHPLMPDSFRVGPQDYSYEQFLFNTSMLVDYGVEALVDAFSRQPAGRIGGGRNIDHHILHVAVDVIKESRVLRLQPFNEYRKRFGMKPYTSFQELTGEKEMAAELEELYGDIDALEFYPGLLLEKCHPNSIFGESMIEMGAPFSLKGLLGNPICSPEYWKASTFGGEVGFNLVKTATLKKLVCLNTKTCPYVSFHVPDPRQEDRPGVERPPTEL
Outline: as §1

[4] = rat plasma protein binding (PPB) assay; assay type: in vitro ADME; details: average, read-out: Rat Plasma Protein Binding % Bound Avg (converted)
Method: We have adapted a previously reported cyclooxygenase enzymatic assay utilizing LCMS quantification of PGE2 as the product of COX-1 and COX2 catalyzed conversion of arachidonic acid to evaluate the binding properties of newly synthesized ligands [Cao, 2011]. These optimized and miniaturized (384-well plates) LCMS-based COX-1 and COX2 enzymatic assays enabled us to quickly evaluate newly synthesized ligands for COX2 binding affinity and selectivity vs COX-1. Using a shorter ligand-enzyme incubation time in the LCMS assay (2 minutes vs 10 minutes) also permitted us to prioritize ligands with faster binding kinetics. Considering the relatively slow on-rate kinetics of known coxibs, due to their 3-step binding mechanism [Marnett, 2009], we believe that optimizing this critical parameter will be key to the successful development of a COX2 PET tracer. Using these enzymatic assays, we have evaluated>200 newly synthesized ligands against COX2 and >20 ligands against COX-1. Another critical property necessary for a good PET radiotracer is to have low non-specific binding (NSB) to increase the free fraction and maximize the signal to noise ratio. This property can be evaluated using in-vitro protein binding assays, and we have now evaluated>50 newly synthesized ligands in mouse, rat and human plasma protein binding (PPB) assays as well as >15 ligands in a mouse brain protein binding (BPB) assay.

[5] = PBS Solubility (no DMSO); assay type: physicochemical; details: aqueous buffer, thermodynamic from solid, average
[6] = Rat Plasma Protein Stability (% Remaining); assay type: in vitro ADME; details: average
[7] = Human Microsome Stability; assay type: in vitro ADME; details: human microsomes
[8] = readout pge2/pge2d4 area ratio, read-out: COX2 2 minutes pge2/pge2d4 area ratio Avg. IC50
[9] = readout pge2 area (counts), read-out: COX2 2 minutes pge2 area (counts) Avg. IC50
[10] = 10 minutes, readout pge2/pge2d4 area ratio, average LLE
[11] = 10 minutes, readout pge2 area (counts), average LLE
[12] = 10 minutes, readout pge2 area (counts), average, read-out: COX1 10 minutes pge2 area (counts) Avg. IC50

COc1ncc(OCc2cccs2)nc1-c1ccc(S(C)(=O)=O)cc1 [Compound 8]
Mouse Plasma Protein Stability % Remaining Avg [1]: 92.8% | COX2 2 minutes pge2/pge2d4 area ratio Avg. LLE ([2]; readout pge2/pge2d4 area ratio): 5.399 | IC50 [2, 8]: 6.59 nM | COX2 2 minutes pge2 area (counts) Avg. LLE ([2]; readout pge2 area (counts)): 5.446 | IC50 [2, 9]: 7.15 nM

CS(=O)(=O)c1ccc(-c2cncc(SCc3ccoc3)n2)cc1 [Compound 12]
COX1 10 minutes pge2/pge2d4 area ratio Avg. LLE [3, 10]: 1.784 | IC50 ([3]; 10 minutes, readout pge2/pge2d4 area ratio, average, read-out: COX1 10 minutes pge2/pge2d4 area ratio Avg. IC50): 38500 nM | COX1 10 minutes pge2 area (counts) Avg. LLE [3, 11]: 1.801 | IC50 [3, 12]: 37700 nM | fraction unbound [4]: 0.006 | solubility [5]: 7.4 µM (≈ 2.56 µg/mL) | Rat Plasma Protein Stability % Remaining Avg [6]: 95% | COX2 2 minutes pge2/pge2d4 area ratio Avg. LLE ([2]; readout pge2/pge2d4 area ratio): 5.445 | IC50 [2, 8]: 8.44 nM | COX2 2 minutes pge2 area (counts) Avg. LLE ([2]; readout pge2 area (counts)): 5.417 | IC50 [2, 9]: 9.78 nM

CS(=O)(=O)c1ccc(-c2cccc(NCc3ccc(F)cc3)n2)cc1 [Compound 13]
fraction unbound [4]: 0.021 | Human Microsome Stability % Remaining Avg [7]: 62% | Rat Plasma Protein Stability % Remaining Avg [6]: 101% | COX2 2 minutes pge2/pge2d4 area ratio Avg. LLE ([2]; readout pge2/pge2d4 area ratio): 4.5476 | IC50 [2, 8]: 8.78 nM | COX2 2 minutes pge2 area (counts) Avg. LLE ([2]; readout pge2 area (counts)): 4.59 | IC50 [2, 9]: 8.19 nM

Cc1cc(CNc2cccc(-c3ccc(S(C)(=O)=O)cc3)n2)co1 [Compound 27]
IC50 [3]: 52000 nM | COX1 10 minutes pge2/pge2d4 area ratio Avg. LLE [3, 10]: 1.134 | COX1 10 minutes pge2 area (counts) Avg. LLE [3, 11]: 1.134 | fraction unbound [4]: 0.037 | Human Microsome Stability % Remaining Avg [7]: 8.8% | Rat Plasma Protein Stability % Remaining Avg [6]: 99.7% | COX2 2 minutes pge2/pge2d4 area ratio Avg. LLE ([2]; readout pge2/pge2d4 area ratio): 4.789 | IC50 [2, 8]: 13.3 nM | COX2 2 minutes pge2 area (counts) Avg. LLE ([2]; readout pge2 area (counts)): 4.853 | IC50 [2, 9]: 10.9 nM

CS(=O)(=O)c1ccc(-c2cccc(OCc3ccco3)n2)cc1 [Compound 28]
IC50 [3]: 52000 nM | COX1 10 minutes pge2/pge2d4 area ratio Avg. LLE [3, 10]: 1.104 | COX1 10 minutes pge2 area (counts) Avg. LLE [3, 11]: 1.104 | fraction unbound [4]: 0.025 | Human Microsome Stability % Remaining Avg [7]: 15% | Rat Plasma Protein Stability % Remaining Avg [6]: 102.8% | COX2 2 minutes pge2/pge2d4 area ratio Avg. LLE ([2]; readout pge2/pge2d4 area ratio): 4.722 | IC50 [2, 8]: 13.6 nM | COX2 2 minutes pge2 area (counts) Avg. LLE ([2]; readout pge2 area (counts)): 4.78 | IC50 [2, 9]: 12.6 nM

CS(=O)(=O)c1ccc(-c2cccc(/C=C\c3cccs3)n2)cc1 [Compound 41]
IC50 [3]: 52000 nM | COX1 10 minutes pge2/pge2d4 area ratio Avg. LLE [3, 10]: 0.234 | COX1 10 minutes pge2 area (counts) Avg. LLE [3, 11]: 0.2543 | IC50 [3, 12]: 49600 nM | fraction unbound [4]: 0.021 | Rat Plasma Protein Stability % Remaining Avg [6]: 100% | COX2 2 minutes pge2/pge2d4 area ratio Avg. LLE ([2]; readout pge2/pge2d4 area ratio): 3.735 | IC50 [2, 8]: 19 nM | COX2 2 minutes pge2 area (counts) Avg. LLE ([2]; readout pge2 area (counts)): 3.716 | IC50 [2, 9]: 21.7 nM

CS(=O)(=O)c1ccc(-c2cccc(NCc3cccs3)n2)cn1 [Compound 59]
IC50 [3]: 52000 nM | COX1 10 minutes pge2/pge2d4 area ratio Avg. LLE ([3]; 10 minutes, pge2/pge2d4 area ratio, head of this section not shown, inferred): 1.754 | COX1 10 minutes pge2 area (counts) Avg. LLE ([3]; 10 minutes, pge2 area (counts), head of this section not shown, inferred): 1.754 | Human Microsome Stability % Remaining Avg [7]: 28% | COX2 2 minutes pge2/pge2d4 area ratio Avg. LLE ([2]; readout pge2/pge2d4 area ratio): 5.112 | IC50 [2, 8]: 32 nM | COX2 2 minutes pge2 area (counts) Avg. LLE ([2]; readout pge2 area (counts)): 5.062 | IC50 [2, 9]: 42.6 nM
